This note sets out measurements from ChEMBL document CHEMBL1146528, “Isolation and structures of avicins D and G: in vitro tumor-inhibitory saponins derived from Acacia victoriae” (J Nat Prod, 2003).

Each structure is given as a SMILES string. In brackets after ≈: the same amount, converted by molar mass.

This experiment relates to Jurkat. Briefly: Cytotoxicity against human Jurkat cells after 72 hrs by MTT assay. Format: functional, cell-based.
Broadly, the IC50 is the concentration that inhibits the measured activity by half. Higher therefore signals a need for much substance. Consider `CC(=O)N[C@H]1[C@H](O[C@H]2CC[C@]3(C)[C@H]4CC=C5[C@@H]6CC(C)(C)[C@@H](O)C[C@]6(C(=O)O)[C@H](O)C[C@@]5(C)[C@]4(C)CC[C@H]3C2(C)C)O[C@H](CO[C@@H]2O[C@H](C)[C@H](O)[C@H](O)[C@H]2O[C@@H]2OC[C@@H](O)[C@H](O)[C@H]2O)[C@@H](O)[C@@H]1O`, for which the IC50 was > 100 µg/mL.
Regarding `CC1(C)C[C@H]2C3=CC[C@@H]4[C@@]5(C)CC[C@H](O)C(C)(C)[C@@H]5CC[C@@]4(C)[C@]3(C)C[C@@H](O)[C@@]23C[C@@H]1OC3=O`, the IC50 is > 100 µg/mL.
`C=C[C@](C)(O)CC/C=C(\CO)C(=O)O[C@H]1[C@H](O)[C@@H](O)[C@H](O[C@@](C)(C=C)CC/C=C(\CO)C(=O)O[C@H]2C[C@]3(C(=O)O[C@@H]4O[C@H](CO)[C@@H](O)[C@H](O)[C@H]4O[C@@H]4O[C@@H](C)[C@H](O[C@@H]5O[C@@H](CO)[C@H](O)[C@H]5O)[C@@H](O[C@@H]5O[C@H](CO)[C@@H](O)[C@H](O)[C@H]5O)[C@H]4O)[C@H](O)C[C@]4(C)C(=CC[C@@H]5[C@@]6(C)CC[C@H](O[C@@H]7O[C@H](CO[C@@H]8O[C@H](C)[C@H](O)[C@H](O)[C@H]8O[C@@H]8OC[C@@H](O)[C@H](O)[C@H]8O)[C@@H](O)[C@H](O)[C@H]7NC(C)=O)C(C)(C)[C@@H]6CC[C@]54C)[C@@H]3CC2(C)C)O[C@@H]1C` [AVICIN D] showed an IC50 of 0.58 µg/mL (≈ 0.278 µM).
For the compound `C=C[C@](C)(O)CC/C=C(\C)C(=O)O[C@H]1[C@H](O)[C@@H](O)[C@H](O[C@@](C)(C=C)CC/C=C(\CO)C(=O)O[C@H]2C[C@]3(C(=O)O[C@@H]4O[C@H](CO)[C@@H](O)[C@H](O)[C@H]4O[C@@H]4O[C@@H](C)[C@H](O[C@@H]5O[C@@H](CO)[C@H](O)[C@H]5O)[C@@H](O[C@@H]5O[C@H](CO)[C@@H](O)[C@H](O)[C@H]5O)[C@H]4O)[C@H](O)C[C@]4(C)C(=CC[C@@H]5[C@@]6(C)CC[C@H](O[C@@H]7O[C@H](CO[C@@H]8O[C@H](C)[C@H](O)[C@H](O)[C@H]8O[C@@H]8OC[C@@H](O)[C@H](O)[C@H]8O)[C@@H](O)[C@H](O)[C@H]7NC(C)=O)C(C)(C)[C@@H]6CC[C@]54C)[C@@H]3CC2(C)C)O[C@@H]1C` [AVICIN G], half-maximal inhibition (IC50) was put at 0.22 µg/mL (≈ 0.106 µM).
Take `C=C[C@@](C)(CC/C=C(\CO)C(=O)O[C@H]1C[C@]2(C(=O)O[C@@H]3O[C@H](CO)[C@@H](O)[C@H](O)[C@H]3O[C@@H]3O[C@@H](C)[C@H](O[C@@H]4O[C@@H](CO)[C@H](O)[C@H]4O)[C@@H](O[C@@H]4O[C@H](CO)[C@@H](O)[C@H](O)[C@H]4O)[C@H]3O)[C@H](O)C[C@]3(C)C(=CC[C@@H]4[C@@]5(C)CC[C@H](O[C@@H]6O[C@H](CO[C@@H]7O[C@H](C)[C@H](O)[C@H](O)[C@H]7O[C@@H]7OC[C@@H](O)[C@H](O)[C@H]7O)[C@@H](O)[C@H](O)[C@H]6NC(C)=O)C(C)(C)[C@@H]5CC[C@]43C)[C@@H]2CC1(C)C)O[C@@H]1O[C@H](C)[C@@H](O)[C@H](O)[C@H]1O` [JULIBROSIDE J29]: the IC50 was found to be 5.8 µg/mL (≈ 3.05 µM).
